The results in this text go back to the NIST ThermoML archive (doi:10.1016/j.jct.2016.06.011).

This series is described as follows: wn = mass fraction of the nth substance listed. The following applies: 101.3 kPa, Liquid, Pycnometric method.

± gives the expanded uncertainty stated by the source.

As to `O=C1OC(=O)c2ccccc21` [isobenzofuran-1,3-dione] + C1COCCO1, the mass density (as a rule, the mass of a sample divided by its volume) is recorded as 1034 ± 14 kg/m3 (283.15 K, w1 = 0.08506); 1051 ± 14 kg/m3 (293.15 K, w1 = 0.1354); 1061 ± 14 kg/m3 (303.15 K, w1 = 0.21).
For the molecule `O=Cc1ccc2ccccc2c1` [β-naphthaldehyde] + C1COCCO1, the mass density is, setting by setting: (283.15 K, w1 = 0.3211) 1049 ± 14 kg/m3; (293.15 K, w1 = 0.4232) 1056 ± 14 kg/m3; (303.15 K, w1 = 0.5289) 1063 ± 14 kg/m3.
